Measured values from ChEMBL document CHEMBL3507680, “University of Dundee, Gates Library screen for HepG2 cell viability”.

assay: Human HepG2 cell viability assay in 384 well format; type: toxicity, cell-based; parameters: dose 125 nL, time 70.5 hour; concentration not given beside the values; settings: HepG2 cells, read-out: Inhibition

SMILES	cytotoxicity at 70.5 h [%]
Cc1ccc2cc(CNCCN3CCCC3)c(=O)[nH]c2c1	-0.158
CCCn1ncc(CN2C[C@@H]3CCCN3C[C@H]2Cc2ccccc2)c1C	23.6
C=Cn1ncc(CN2C[C@@H]3C[C@@H](O)CN3C[C@@H]2Cc2ccccc2)c1C	1.04
CNc1cccc(C2CCCN(C(=O)c3cccnc3)C2)n1 (configuration not stated)	20.4
COc1cc(CN2CCC3(CC(Nc4ccncn4)C3)C2)cc(OC)c1 (configuration not stated)	0.186
CN(C)Cc1ccnc(C2CCCN2Cc2ccc3ncccc3c2)n1 (configuration not stated)	1.4
Cc1cccnc1CN1CCC2(CC(Nc3ccncn3)C2)C1 (configuration not stated)	1.25
COc1cccc(CN2CCC3(CC(Nc4ccncn4)C3)C2)c1F (configuration not stated)	2.19
CC(C)N1CCC(Cc2cncc(-c3cc(F)ccc3C(=O)O)n2)CC1	0.0602
Cc1ccccc1-c1cncc(C2CCN(CC(=O)N(C)C)CC2)n1	-3.4
C=Cn1ncc(CN2C[C@@H]3CCCN3C[C@H]2Cc2ccccc2)c1C	14.6
O=C(N[C@@H]1CCC[C@@H](n2ccnc2)[C@@H]1O)c1ccc2c(c1)CCCC2	30.9
Nc1nc2nc(C3CCN(C(=O)c4cscn4)C3)ccc2s1 (configuration not stated)	-5.85
Cn1ccc(C(=O)N2CCC(Cc3cnc4[nH]ccc4c3)C2)n1 (configuration not stated)	-7.96
CNC(=O)c1cccc(C2CNCCN2C(=O)C2CCNCC2)c1 (configuration not stated)	-5.44
CCc1cc(O)nc(C2CCCN2C(=O)c2cc(CC)on2)n1 (configuration not stated)	-5.67
Cc1cc(C)nc(Nc2cccc(C3CCCN(CCO)C3)n2)n1 (configuration not stated)	-4.13
Cc1n[nH]c(C)c1NC(=O)CCc1cccc(C2CCCN(C)C2)n1 (configuration not stated)	-3.99
Cc1cccc(C2CCCN(C(=O)c3ccncc3)C2)n1 (configuration not stated)	-7.3
COCC(=O)N1CCOC(c2ccc(N(C)C)cn2)C1 (configuration not stated)	15.3
Cc1nc(C)c(C(=O)Nc2cnn(CC(=O)NC3CCCC3)c2)s1	14.1
Cn1ccc(C(=O)N2CCCC(Cc3cccc4cccnc34)C2)n1 (configuration not stated)	11.6
COc1cccc(C(=O)NC(c2ccccn2)[C@H]2CC[C@H](CN)CC2)c1 (some centres not stated)	-8.19
CNc1cc(CNC(=O)c2ccccc2OC)nc(-c2ccncc2)n1	12.5

SMILES	cytotoxicity at 70.5 h [%]
CNc1ccc(CC2CCCN(C(=O)c3cnccn3)C2)nn1 (configuration not stated)	-14.4
CNc1ccc(CC2CCCN(C(=O)c3c(C)noc3C)C2)nn1 (configuration not stated)	-13.8
O=C(C1CCC1)N1CCCC(c2cccc(-n3ccnc3)n2)C1 (configuration not stated)	-6.13
COCC(=O)N1CCCC1c1csc(Nc2cnccn2)n1 (configuration not stated)	-10.2
Cc1cncc(C2CCN(Cc3cccn3C)CC2)n1	11.8
COc1ncc(CN2CCCC(c3[nH]ncc3S(C)(=O)=O)C2)cn1 (configuration not stated)	-7.31
CNc1cncc(C2CCCN2Cc2cccc(C)n2)n1 (configuration not stated)	-6.12
O=C(Cc1ccsc1)N1CCC(O)(CN2CCc3ccccc3C2)C1 (configuration not stated)	-5.49
Cc1ccc(C(=O)N2CCCCC2c2[nH]ncc2S(C)(=O)=O)s1 (configuration not stated)	12.5
Cn1cccc1C(=O)N1CCCCC1c1[nH]ncc1S(C)(=O)=O (configuration not stated)	-5.18
O=C(N[C@@H]1CN(Cc2cccc3[nH]ccc23)C[C@H]1O)c1cscn1	-4.99
COc1ccc(CN2CCOC(CCc3ccnc(N)c3)C2)cc1 (configuration not stated)	-0.852
CCN(CC)S(=O)(=O)NCC1COc2ccccc2O1 (configuration not stated)	24.9
CCc1nnc(CN2CCc3ccc(S(N)(=O)=O)cc32)o1	-0.999
CN(C(=O)c1ccccc1N(C)S(C)(=O)=O)c1ccc(C(C)(C)C)cc1	5.15
Cc1ncsc1C(=O)N1CCCC1c1c(C)nn(C)c1C (configuration not stated)	-1.63
O=S(=O)(NCc1ccnc(-n2ccnc2)c1)c1cncc(Cl)c1	-0.226
CCN(Cc1cnc(C)cn1)C1CCN(c2ccccc2)C1=O (configuration not stated)	2.9
CCOCCC(=O)N(CCC#N)c1ccc(C)c(C)c1	-1.94
CC(C(=O)NCc1ccc2c(c1)OCCO2)n1cncn1 (configuration not stated)	31.8
O=C(CCn1cccn1)NCCOc1ccc2c(c1)OCO2	-6.03
O=C(CCOc1ccc(Cl)cc1)NCCCn1cccn1	23.1
N#Cc1cccnc1N1CCC(Nc2ccccc2)C1 (configuration not stated)	-8.64
Cc1ccc(C(=O)NC2CCN(S(C)(=O)=O)CC2)c(=O)[nH]1	-14.3

SMILES	cytotoxicity at 70.5 h [%]
Cc1nn(CC(=O)NCC2(C(N)=O)CCOCC2)c(C)c1Cl	-8.87
Cc1nn(C)c(Cl)c1C(=O)NCC1(C(N)=O)CCOCC1	-11.7
Cc1ncc2c(n1)CN(Cc1nc(-c3ccsc3)oc1C)CC2	-15.2
CC(C)NC(=O)CN(C)C(=O)c1csc(Cc2ccccc2F)n1	-6.85
Cc1nc(COC(=O)c2cccc3c2OCCO3)no1	23.5
N#CC1COCCN1C(=O)c1ccc2cc[nH]c2c1 (configuration not stated)	-9.25
CC(C)NC(=O)CNC(=O)c1csc(Cc2ccccc2F)n1	-4.54
Cn1cc(CN2CCS(=O)(=O)C(C)(C)C2)cn1	-9.13
Cc1nc(COC(=O)c2cccnc2C)no1	-5.39
CCCC(C#N)NC(=O)c1sccc1CC (configuration not stated)	-12.4
CCc1ncc2c(n1)CN(Cc1nc(-c3ccco3)oc1C)CC2	-7.47
COc1cc(NC2CCCN(c3ncccc3C#N)C2)cc(OC)c1 (configuration not stated)	23
CCN(C)Cc1cccc(CNC(=O)CSCc2ccccn2)c1	-15.2
CC(NCc1cccc(NC(=O)C2CCCCC2)c1)c1cnn(C)c1 (configuration not stated)	-9.44
CC(C)C(=O)Nc1cccc(CNC(=O)CSCc2ccccn2)c1	-11.7
CC(C(=O)NCC(C)(C)c1ccc2c(c1)OCCO2)n1cncn1 (configuration not stated)	0.318
CC(CNS(N)(=O)=O)Oc1cccc(Cl)c1 (configuration not stated)	-0.0153
O=C(NC1CCS(=O)(=O)C1)c1ccccc1SCc1cscn1 (configuration not stated)	-9.17
O=C(NC1CCS(=O)(=O)C1)c1ccc(SCc2cscn2)cc1 (configuration not stated)	-6.01
Cc1noc(C(C)Nc2ccc3oc(C(C)C)nc3c2)n1 (configuration not stated)	1.64
CCc1ccsc1C(=O)N(C)CCc1ccncc1	-1.38
CCc1c(C(=O)N2CCOC(C)(C)C2)cnn1-c1ccccn1	-2.04
Cc1nnc(NC(=O)NCc2ccc(C)n2C)s1	13.4
CC(C)CC(C#N)NC(=O)CCNC(=O)C(C)(C)C (configuration not stated)	2.87

SMILES	cytotoxicity at 70.5 h [%]
Cc1ccc(C(=O)NCC(C)Cn2ccnc2C)c(=O)[nH]1 (configuration not stated)	0.288
COCCS(=O)(=O)N(Cc1ccsc1)c1ccccc1	2.67
CC(CNS(C)(=O)=O)Oc1cccc(Cl)c1 (configuration not stated)	3.7
Cn1ccnc1C(=O)NCCS(=O)(=O)c1ccc(C(C)(C)C)cc1	-3.28
CN(C)c1nc(CNC(=O)NC2COc3ccccc32)cs1 (configuration not stated)	2.4
CSc1c[nH]nc1NS(=O)(=O)c1cc(F)ccc1C	-3.64
CN(C)C(=O)N1CCN(Cc2cnc(-c3ccsc3)s2)CC1	-11.7
O=C(CC1OCCc2ccccc21)NCC1(O)CCCCC1 (configuration not stated)	-2.94
CC(C)CCC(=O)NC(C#N)CC(C)C (configuration not stated)	3.54
Cc1ccc(-c2ncc(CN3CCN(C(=O)N(C)C)CC3)s2)o1	-7.74
CN(Cc1ccc(F)cc1F)Cc1cc2c(cc1Br)OCCO2	-6.67
Cc1ccc(CN(C(=O)NC2CCS(=O)(=O)C2)C2CC2)o1 (configuration not stated)	-7.82
O=C(NCC1CCS(=O)(=O)C1)N(Cc1ccco1)C1CC1 (configuration not stated)	-10.7
O=C(Cc1c(F)cccc1Cl)Nc1cccc(N2CCCC2)c1	-4.34
CCC(CNC(=O)CCn1cncn1)N1CCc2ccccc2C1 (configuration not stated)	7.08
CCN(CC)C(CNC(=O)c1ccnc(N(C)C)c1)c1ccsc1 (configuration not stated)	-5.28
Cc1ccc(-c2cc(CNC(=O)NC3CCCCNC3=O)on2)cc1 (configuration not stated)	-8.17
Cc1ccc(CN(C(=O)NCC2CCCO2)C2CC2)o1 (configuration not stated)	-9.69
CC(CNC(=O)CCn1cncn1)N1CCc2ccccc21 (configuration not stated)	-1.72
CC(C)CC(=O)N1Cc2ccccc2CC1C(=O)Nc1nccs1 (configuration not stated)	-8.5
CCc1ncc2c(n1)CN(c1nnc(C)c(C)c1C#N)CC2	5.31
CCOC(=O)C1(O)CCN(C(=O)Nc2cccc(CC)c2)CC1	-0.303
O=C(NCCc1ccncc1)c1cccc(S(=O)(=O)NC2CC2)c1	1.33
NC(=O)c1ccc(N2CCN(CCCc3cn[nH]c3)CC2)cc1	-0.688

SMILES	cytotoxicity at 70.5 h [%]
Cc1ccc(C)n1-c1ccsc1C(=O)NCC(=O)N1CCCC1	-1.31
NC(=O)COc1cccc(CN2CCCC2c2ccc[nH]2)c1 (configuration not stated)	-5.09
Cc1cc(NC(=O)N2CCCC(O)C2)nn1-c1ccccc1Cl (configuration not stated)	-5.66
Cn1c(=O)ccn(CC(=O)NCC2Cc3ccccc3O2)c1=O (configuration not stated)	-0.993
CCOCCOC(C)C(=O)Nc1ccc2[nH]c(C)cc2c1 (configuration not stated)	-8.04
CCSCCC(=O)NCc1cnn(-c2ccc(F)cc2F)c1	7.31
CCS(=O)(=O)NC1CCCN(Cc2ccn(C)c(=O)c2)C1 (configuration not stated)	-9.02
CCOCCOC(C)C(=O)Nc1ccc2c(ccn2CC)c1 (configuration not stated)	-6.19
Cn1c(NCC(=O)N2CCCCC2)c(C#N)c(=O)n(C)c1=O	-11.6
CC(=O)N1CCN(C(=O)CCNc2snc(Cl)c2C#N)CC1	-10.6
CCC(=O)NCC(=O)NC(Cc1ccccc1)c1sccc1C (configuration not stated)	-2.67
CC(=O)NC1(C(=O)N2CCC(Nc3cccnn3)CC2)CCCCC1	3.94
Cn1ccc(C(=O)N2CCCC(CNS(C)(=O)=O)C2)cc1=O (configuration not stated)	-8.6
Cc1ccsc1C(Cc1ccccc1)NC(=O)CSCC(N)=O (configuration not stated)	-4.76
O=C(CCC1CCCCO1)NCc1cnn(-c2ccc(F)cc2F)c1 (configuration not stated)	8.18
Cc1ccc(NC(=O)N2CCCN(C(N)=O)CC2)s1	7.8
CN(C)CCSc1ccc(NC(=O)c2nccn3ccnc23)cc1	-2.14
O=C(N1CCN(CCO)CC1)C1(O)Cc2ccccc2C1	-4.44
O=C(N1CCSCC1)C1(O)Cc2ccccc2C1	-2.54
CCC(C)S(=O)(=O)N1CCc2nc(C3CCNCC3)ncc2C1 (configuration not stated)	-0.105
CC(C)(C)NC(=O)CN1CCNCC1	6.83
